Drawing on patent US20260355184A1, “SMALL MOLECULE DEGRADERS OF HIV-1 TAT PROTEIN” (priority 2022, published 2026), this text covers CC50 and IC50 for 27 molecules.

A short description of data set [1]: Cytotoxicity assay, Cell-Titer-Glo, HeLa-CD4-LTR-LacZ. Particulars: human, hela-cd4-ltr-lacz cells, Infectivity CC50, HeLa-CD4-LTR-LacZ. As to the method:
(§1) Next, the activity of these leads against HIV infection was evaluated using the reporter cell line HeLa-CD4-LTR-LacZ, which stably expresses the β-galactosidase (β-Gal) gene under the control of the HIV 5′ LTR. The HIV NL4.3 strain was used for these studies and β-Gal activity was measured 72 hrs post infection (FIG. 3A). Cytotoxicity assays using Cell-Titer-Glo were performed in parallel to assess cell viability (FIG. 3A). […] Their anti-HIV activity was further assessed in acute replication of Jurkat T cells with the NL4.3 strain (FIG. 3A). […] These OM10.1 cells contain a single integrated wild-type provirus, while ACH-2 cells contain a single integrated provirus with a TAR mutation C37T, defective Tat-TAR feedback loop (FIG. 3B).

The test system of another data set is HIV NL4.3 strain. Briefly: HIV infectivity assay, reporter cell line HeLa-CD4-LTR-LacZ, β-Gal activity (Tat protein inhibition). It is filed as cell-based, HIV-1 (NL4.3). Particulars: Human immunodeficiency virus 1, read-out: Infectivity IC50, HeLa-CD4-LTR-LacZ. As to the method:
as §1

Like-named read-outs stand apart in the source and are kept apart here.

Usually CC50 stands for the concentration that lowers cell viability or growth by half. High values mean better tolerance by the cells, low ones harm at low concentration. Usually IC50 stands for the concentration needed to halve the response being measured.

`O=C(Cn1cc(C(F)(F)F)cc(Cl)c1=O)Nc1cc(C(F)(F)F)ccc1OCCN1CCOCC1` [compound 51] had a CC50 in data set [1] (analogs of TT-44863 (Table 2)) of 50 to 100 µM. In addition, the IC50 in the data set with HIV NL4.3 strain (analogs of TT-44863 (Table 2)) lay in the range of 1 to 10 µM.

In data set [1] (analogs of TT-44863 (Table 2)), `CN1CCN(CCOc2ccc(C(F)(F)F)cc2NC(=O)Cn2cc(C(F)(F)F)cc(Cl)c2=O)CC1` [compound 52] yielded a CC50 of 25 to 50 µM. The IC50 with HIV NL4.3 strain (analogs of TT-44863 (Table 2)) lay in the range of 10 to 20 µM.

As to `CCOCCOCCOc1ccc(C(F)(F)F)cc1NC(=O)Cn1cc(C(F)(F)F)cc(Cl)c1=O` [compound 55], the CC50 in data set [1] (analogs of TT-44863 (Table 2)) is over 100 µM. The IC50 in the data set on HIV NL4.3 strain (analogs of TT-44863 (Table 2)) was 1 to 20 µM.

In the case of `COc1ccc(C(F)(F)F)cc1NC(=O)C(CCO)n1cc(C(F)(F)F)cc(Cl)c1=O` (stereo not drawn) [compound 60], the CC50 in data set [1] (analogs of TT-44863 (Table 2)) lay in the range of 10 to 30 µM. For the same molecule, the concentration for half-maximal inhibition (IC50) with HIV NL4.3 strain (analogs of TT-44863 (Table 2)) is 10 to 50 µM.

As for `COc1cc(NC(=O)Cn2cc(C(F)(F)F)cc(Cl)c2=O)cc(C(F)(F)F)c1` [compound 61], the CC50 in data set [1] (analogs of TT-44863 (Table 2)) is over 100 µM. In the data set with HIV NL4.3 strain (analogs of TT-44863 (Table 2)), the IC50 was over 100 µM.

Take `O=C(O)c1ccc(CNC(=O)c2cn(-c3ccccc3)c3ccccc23)cc1` [compound 41784]: in data set [1] (analogs of TT-44881 (Table 1)), the CC50 was over 100 µM. Besides, the 50% inhibitory concentration (IC50) in the data set on HIV NL4.3 strain (analogs of TT-44881 (Table 1)) is over 100 µM.

In data set [1] (analogs of TT-44881 (Table 1)), `CS(=O)(=O)N1CCN(C(=O)c2cn(-c3ccccc3)c3ccccc23)CC1` [compound 41798] had a CC50 of over 100 µM. Moreover, the IC50 in the data set on HIV NL4.3 strain (analogs of TT-44881 (Table 1)) was over 100 µM.

Regarding `NS(=O)(=O)c1ccc(CCNC(=O)c2cn(-c3ccccc3)c3ccccc23)cc1` [compound 41799], the CC50 in data set [1] (analogs of TT-44881 (Table 1)) is over 100 µM. Further, the half-maximal inhibitory concentration (IC50) in the data set on HIV NL4.3 strain (analogs of TT-44881 (Table 1)) is 5 to 20 µM.

`N#Cc1ccc(NC(=O)c2cn(-c3ccccc3)c3ccccc23)cc1` [compound 41905] had a CC50 in data set [1] (analogs of TT-44881 (Table 1)) of 1 to 10 µM. Also, the IC50 in the data set on HIV NL4.3 strain (analogs of TT-44881 (Table 1)) was in the range of 1 to 10 µM.

In data set [1] (analogs of TT-44881 (Table 1)), `O=C(NCc1ccccc1N1CCCCC1)c1cn(-c2ccccc2)c2ccccc12` [compound 41924] returned a CC50 of over 100 µM. Moreover, the IC50 with HIV NL4.3 strain (analogs of TT-44881 (Table 1)) was over 100 µM.

In data set [1] (analogs of TT-44881 (Table 1)), `CC(=O)c1cccc(CNC(=O)c2cn(-c3ccccc3)c3ccccc23)c1` [compound 41967] registered a CC50 of over 100 µM. In addition, the IC50 with HIV NL4.3 strain (analogs of TT-44881 (Table 1)) is over 100 µM.

Molecule `N#Cc1ccc(CNC(=O)c2cn(-c3ccccc3)c3ccccc23)cc1` [compound 41969] gave a CC50 in data set [1] (analogs of TT-44881 (Table 1)) of over 100 µM. In addition, the 50% inhibitory concentration (IC50) in the data set with HIV NL4.3 strain (analogs of TT-44881 (Table 1)) was found to be 12.4 µM.

Take `O=C(NCc1ccc(Cl)cn1)c1cn(-c2ccc(F)cc2)c2ccccc12` [compound 41980]: the CC50 in data set [1] (analogs of TT-44881 (Table 1)) amounted to 35.6 µM. The IC50 in the data set on HIV NL4.3 strain (analogs of TT-44881 (Table 1)) is over 100 µM.

Regarding `O=C(O)c1ccc(C2(NC(=O)c3cn(-c4ccc(F)cc4)c4ccccc34)CC2)cc1` [compound 42097], the CC50 in data set [1] (analogs of TT-44881 (Table 1)) is over 100 µM. Moreover, the IC50 in the data set on HIV NL4.3 strain (analogs of TT-44881 (Table 1)) was over 100 µM.

For `CCN(CC(=O)Nc1cc(C(F)(F)F)ccc1OCCOC)C(=O)Cc1ccccc1` [compound 45172], the CC50 in data set [1] (analogs of TT-44863 (Table 2)) is about 80 µM. Besides, the IC50 in the data set with HIV NL4.3 strain (analogs of TT-44863 (Table 2)) was about 80 µM.

With `O=C(NCCCN1CCCC1=O)c1ccn(-c2ccccc2)n1` [compound 45732], the CC50 in data set [1] (analogs of TT-44881 (Table 1)) was over 100 µM. Also, the IC50 in the data set with HIV NL4.3 strain (analogs of TT-44881 (Table 1)) is over 100 µM.

As for `CCOc1ccccc1NC(=O)Cn1c(C)cc(COC)c(C#N)c1=O` [compound 46602], the CC50 in data set [1] (analogs of TT-44863 (Table 2)) was over 100 µM. Further, the IC50 in the data set with HIV NL4.3 strain (analogs of TT-44863 (Table 2)) is over 100 µM.

For the molecule `CCOc1ccccc1NC(=O)Cn1cc(C(F)(F)F)cc(Cl)c1=O` [compound 46604], the CC50 in data set [1] (analogs of TT-44863 (Table 2)) is over 100 µM. Further, the IC50 in the data set on HIV NL4.3 strain (analogs of TT-44863 (Table 2)) is over 100 µM.

On to `COc1ccccc1NC(=O)Cn1cc(C(F)(F)F)cc(Cl)c1=O` [compound 46605], for which the CC50 in data set [1] (analogs of TT-44863 (Table 2)) was over 100 µM. For the same molecule, the IC50 with HIV NL4.3 strain (analogs of TT-44863 (Table 2)) was over 100 µM.

For the molecule `O=C(c1nn(-c2ccccc2)c2c1CCC2)N1CCCC1` [compound 46607], in data set [1] (analogs of TT-44881 (Table 1)), the CC50 was over 100 µM. The IC50 in the data set on HIV NL4.3 strain (analogs of TT-44881 (Table 1)) is over 100 µM.

`O=C(NCCCn1ccnc1)C(c1ccccc1)c1ccccc1` [compound 46608] came in with a CC50 in data set [1] (analogs of TT-44856 (Table 3)) of over 100 µM. Besides, in the data set on HIV NL4.3 strain (analogs of TT-44856 (Table 3)), the concentration for half-maximal inhibition (IC50) lay within 1 to 10 µM.

The molecule `O=C(Cn1cc(C(F)(F)F)cc(Cl)c1=O)Nc1cccc2c1OCCO2` [compound 46615] registered a CC50 in data set [1] (analogs of TT-44863 (Table 2)) of over 100 µM. For the same molecule, in the data set with HIV NL4.3 strain (analogs of TT-44863 (Table 2)), the IC50 is over 100 µM.

`COCCOc1ccccc1NC(=O)Cn1cc(C(F)(F)F)cc(Cl)c1=O` [compound 46624] came in with a CC50 in data set [1] (analogs of TT-44863 (Table 2)) of over 100 µM. Also, in the data set with HIV NL4.3 strain (analogs of TT-44863 (Table 2)), the half-maximal inhibitory concentration (IC50) was over 100 µM.

On to `COCCOc1ccccc1NC(=O)Cn1cccc(Cl)c1=O` [compound 46631], for which the CC50 in data set [1] (analogs of TT-44863 (Table 2)) is over 100 µM. Further, the IC50 in the data set with HIV NL4.3 strain (analogs of TT-44863 (Table 2)) is over 100 µM.

Regarding `COc1ccccc1CNC(=O)Cn1cc(C(F)(F)F)cc(Cl)c1=O` [compound 46688], the CC50 in data set [1] (analogs of TT-44863 (Table 2)) is over 100 µM. Moreover, the IC50 with HIV NL4.3 strain (analogs of TT-44863 (Table 2)) is over 100 µM.

In data set [1] (analogs of TT-44863 (Table 2)), `COc1ccc(C)cc1NC(=O)Cn1cc(C(F)(F)F)cc(Cl)c1=O` [compound 46689] came in with a CC50 of over 100 µM. In the data set on HIV NL4.3 strain (analogs of TT-44863 (Table 2)), the IC50 is over 100 µM.

`COCCOc1ccc(C(F)(F)F)cc1NC(=O)Cn1cccc(Cl)c1=O` [compound 46704] came in with a CC50 in data set [1] (analogs of TT-44863 (Table 2)) of over 100 µM. In addition, in the data set with HIV NL4.3 strain (analogs of TT-44863 (Table 2)), the IC50 is over 100 µM.
